According to patent US20150225454A1, “TETRABRANCHED PEPTIDES AND ANALOGUES AS A NEW CLASS OF ANTIMICROBIALS AND THEIR PREPARATION THEREOF” (priority 2012, published 2015):
Where a SMILES comes first, the peptide text is derived from it. Bridges are numbered along the chain shown (N, C = ends). Roman numbers before positions name the chains, in order.

Legend:
[1] = tested on: C. albicans; experiment: microbe, parasite or virus in culture; assay type: cell-based
Experimental: The yeast strains were cultivated and suspended in Sabouraud's Dextrose (SD) broth diluted at one sixth at a starting OD600=˜0.08 in a flat-bottomed microtitre plate. A serial dilution of peptide in the same broth was mixed with the inoculum to give a final peptide concentration of 0.4-22 μM. The antifungal activity was assessed by monitoring the OD600 in cycles of 30 minutes and an orbital shaking at 100 rpm using an Infinite M200 microplate reader (Tecan Group Ltd., Switzerland) for 24/48 h at 37° C. Cultures without peptides were used as positive controls and broth alone or with 22 μM peptide served as negative controls. The minimum concentration required for complete inhibition was assessed by both visible observations as well as by measuring the OD600 and taken as the MIC. Each experiment was repeated in triplicates.

[2] = tested on: C. albicans ATCC10231; experiment: MIC in the presence of monovalent and divalent metal ions; assay type: cell-based
Experimental: For studying the effects of metal ions, SD broth was adjusted with appropriate concentrations of salts to yield a final concentration of 100 and 135 mM for NaCl and KCl and 0.5-2 mM for CaCl2 and MgCl2. MIC determinations were carried out as described above. C. albicans ATCC10231 cells and salts in broth were taken as a positive control. Salts alone (NaCl, KCl, and CaCl2 and MgCl2) in broth or with 22 μM peptide served as a negative control.

[3] = tested on: IOBA-NHC cells; assay type: cell-based, human; conditions: 24 h incubation; read-out: EC50 (concentration that reduces the viable cells by 50%)
Outline: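 Subconfluent (~70%) IOBA-NHC conjunctival cells, passages 50–80, seeded ~10,000/well and grown 24 h at 37 °C in supplemented DMEM/F12 with 10% FBS. Exposed to peptide at 0.22–225 μM; cytotoxicity followed over time by MultiTox-Fluor […] fluorescence (ex 485/em 520 nm).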

[4] = SDS-PAGE pull down assay with cell wall polysaccharides; assay type: binding; conditions: chitin or β-D-glucan, 5.5-22 μM, 2 h, 37° C.
Experimental: In another study to probe the mechanism of action, the affinity of B4010 for insoluble polysaccharides such as chitin and β-D-glucan, the major component of fungal cell walls was examined. B4010 (5.5-22 μM) was incubated with chitin (from shrimp shells) or β-D-glucan for 2 h at 37° C. The mixture was centrifuged at 10,000 g and the supernatant was analyzed by SDS-PAGE (4-20%). A control experiment without chitin/β-D-glucan was also performed to quantify peptide binding to the carbohydrate polymers.

[5] = tested on: C. albicans (ATCC 10231); experiment: SYTOX Green (SG) uptake assay; assay type: cell-based
[6] = tested on: C. albicans; experiment: diS-C3-5 membrane depolarisation assay; assay type: cell-based
Experimental: Change in membrane potential of C. albicans upon addition of B4010 was monitored by the release of potential sensitive probe diS-C3-5 dye. Briefly, 1 ml of overnight grown mid-log phase Candida cells in 5 mM HEPES buffer (pH 7.0) was mixed with 10 μM diS-C3-5 dye and incubated at 37° C. for 1-2 h in a thermo shaker. 800 μL of the dye-loaded cell suspension was transferred to a stirred quartz cuvette and the change in fluorescence intensity was monitored at an emission wavelength (λem) of 670 nm (excitation wavelength, 622 nm) using a Quanta Master spectrofluorimeter (Photon Technology International, NJ, USA). The excitation and emission bandwidths were set at 1 and 2 nm, respectively. Once a constant fluorescence level was achieved, 10 μL of concentrated peptide solution in HEPES buffer was added so that the final concentration of peptide was 0.22-22 μM. The change in fluorescence intensity was monitored continuously for 1 or 2 h. To study the effects of energy poisons and ion-channel inhibitors, the additives were added prior to the addition of 5.5 μM B4010. The change in fluorescence intensity was monitored as before.

[7] = tested on: C. albicans; experiment: Measurement of extracellular cations (ICP-OES); assay type: cell-based
Experimental: Overnight cultured late logarithmic phase C. albicans was harvested by centrifugation, washed 5 times with 10 mM HEPES (pH 7.0), resuspended in the same buffer and adjusted to an OD600=0.4. To 5 ml of this suspension, B4010 (final concentration 5.5 μM) was added and incubated at 37° C. for 2 h. The mixture was centrifuged at 3,000 g and the presence of K^+, Ca^2+ and Mg^2+ in the supernatant was estimated by Perkin Elmer Dual-view Optima 5300 DV inductively coupled plasma-optical emission spectrometry (ICP-OCS Massachusetts, USA) available at CMMAC facilities (Department of Chemistry, National University of Singapore).

[8] = tested on: C. albicans; experiment: ATP bioluminescence assay (extracellular ATP release); assay type: cell-based
Experimental: The extracellular ATP levels upon challenging C. albicans with B4010 were determined as reported before (Koshlukova et al., 1999). Cells (OD600≈0.6) were incubated […] with or without various additives for 2 hours at 37° C. with orbital shaking. […] Each tube was then centrifuged at 5000 g for 5 mins. Then 225 μL of boiling TE buffer (50 mM Tris, 2 mM EDTA, pH 7.8) was added to the 25 μl of the supernatant and mixed well. This mixture was boiled again for another 2 minutes and stored at 4° C. until further examination. 100 μL of a luciferin-luciferase ATP assay mixture was added to 100 μL of the supernatant and luminescence was monitored using the Infinite M200 microplate reader (Tecan Group Ltd., Switzerland). […] For dose-dependent studies, the concentration of the peptide was varied from 0.4-44 μM. The extracellular ATP concentration was determined from calibration curve obtained by ATP assay kit (Molecular Probes, OR, USA) as per the manufacturer's instruction.

CC(C)[C@H](NC(=O)[C@H](CCCCN)NC(=O)[C@H](CCCNC(=N)N)NC(=O)CNC(=O)[C@@H](N)CCCNC(=N)N)C(=O)N[C@H](C(=O)N[C@@H](CCCNC(=N)N)C(=O)N[C@@H](CCCNC(=N)N)C(=O)NCCCC[C@H](NC(=O)[C@H](CCCNC(=N)N)NC(=O)[C@H](CCCNC(=N)N)NC(=O)[C@@H](NC(=O)[C@@H](NC(=O)[C@H](CCCCN)NC(=O)[C@H](CCCNC(=N)N)NC(=O)CNC(=O)[C@@H](N)CCCNC(=N)N)C(C)C)C(C)C)C(=O)NCCCC[C@H](NC(=O)[C@H](CCCCNC(=O)[C@H](CCCNC(=N)N)NC(=O)[C@H](CCCNC(=N)N)NC(=O)[C@@H](NC(=O)[C@@H](NC(=O)[C@H](CCCCN)NC(=O)[C@H](CCCNC(=N)N)NC(=O)CNC(=O)[C@@H](N)CCCNC(=N)N)C(C)C)C(C)C)NC(=O)[C@H](CCCNC(=N)N)NC(=O)[C@H](CCCNC(=N)N)NC(=O)[C@@H](NC(=O)[C@@H](NC(=O)[C@H](CCCCN)NC(=O)[C@H](CCCNC(=N)N)NC(=O)CNC(=O)[C@@H](N)CCCNC(=N)N)C(C)C)C(C)C)C(=O)N[C@@H](CCCCN)C(=O)O)C(C)C [Peptide B4010] (I: H-RGRKVVRRKKK-OH / II: H-RGRKVVRRK / III: H-RGRKVVRR / IV: H-RGRKVVRR; amide I:9-IV:C, I:10-II:C, II:9-III:C; N-terminus and C-terminus assumed)
MIC for two C. albicans clinical isolates [1]: 0.34 µM | MIC values, C. albicans [1]: 0.37 to 1.4 µM | decrease in MIC compared to the co-valent dimer [1]: 4-10 fold | activity superior to natamycin ([1]; ATCC reference and clinical isolates): 2-4 times | increase in MIC ([2]; 25 mM KCl): 8 fold | increase in MIC compared to medium without KCl ([2]; 100 mM KCl): > 16 fold | decrease in MIC ([2]; 135 mM NaCl): 2 fold | change in MIC ([2]; high concentration of Ca2+ and Mg2+ ions): two fold increase | increase in MIC ([2]; physiological concentrations of divalent cations): 2 fold | EC50 [3]: 220 µM | affinity for cell wall polysaccharides (coprecipitation) [4]: no affinity | SG uptake (permeation) ([5]; 1×MIC): 24% | cells membrane compromised ([5]; 2×MIC, 10 mins): About 70% | dye uptake ([5]; 4×MIC, within 25 mins): > 90% | SG uptake (permeation) ([5]; ½×MIC): 13% | reduction in fluorescence intensity in azide-treated cells compared to control cells ([6]; 5 mM NaN3 before B4010): ~25 fold | time course of depolarization ([6]; upon addition of B4010): occurred instantaneously | increase in K+- and Ca2+-ions [7]: 2 fold | calcium concentration in supernatant ([7]; 5.5 μM, 2 h): 5.8 ± 1.3 µM | levels of Na+ and Mg2+ ions ([7]; 5.5 μM, 2 h): no significant changes | potassium concentration in supernatant ([7]; 5.5 μM, 2 h): 104 ± 4.2 µM | time to maximum ATP efflux ([8]; 4×MIC): ≤ 30 min | concentration of maximum ATP release ([8]; dose-dependent study): around 4 ×MIC
